One compound from patent publication US8703120B2, “Use of oncolytic herpes viruses for killing cancer stem cells” (The General Hospital Corporation, priority 2008, dated 2014) can be followed below.

One may read the EC50 as the concentration giving half of the maximal effect.

Common to all, as to assay type: cell-based
In one assay the test system is GBM8 glioma stem cells. The assay is described as follows: MTS cell viability / cell killing assay with Chou-Talalay analysis. Particulars: Homo sapiens, 96 h, MTS 4 days later. As to the method:
(§1) FIG. 10A depicts TMZ synergy with G47delta in MGMT-negative glioma stem cells (GBM4 and GBM8). GBM4 or GBM8 glioma stem cells were seeded to 96-well plates at 5000 cells per well. […] TMZ was applied first followed by G47Δ 12 hours later. MTS assay was performed to measure cell viability 4 days later.

The next assay concerns GBM4 glioma stem cells. The assay is described as above. Particulars: Homo sapiens, 96 h, MTS 4 days later. As to the method: as §1
In the next assay the test system is GBM13 glioma stem cells. The assay is described as follows: MTS cell viability assay with Chou-Talalay analysis. Particulars: Homo sapiens, 96 h, MTS 4 days later. As to the method:
(§2) TMZ was applied first, with or without O6-Benzylguanine (O6-BG:40 or 80 μM), followed by G47Δ 12 hours later. MTS assay was performed to measure cell viability 4 days later.
Background: Tetrazolium dyes change colour on reduction, which living cells bring about.

For a further assay, the system named is U373. Description: MTT cell viability assay with Chou-Talalay analysis. The conditions noted are these: Homo sapiens, U373 MG, 96 h, MTT 4 days later. As to the method: (§3) FIG. 9A depicts that temozolomide (TMZ) synergizes with oncolytic Herpes vector G47Δ in MGMT-negative glioma cell lines U87 and U373. U87 or U373 cells were seeded to 96-well plates at 3000 cells per well. The next day, 1:3 serial dilution series of Temozolomide (TMZ) (EC50 200 μM), and G47Δ (EC50 MOI=0.06) were prepared. TMZ was applied first followed by G47Δ 12 hours later. MTT assay was performed to measure cell viability 4 days later.

For the next assay, the system named is U87. The description is as above. The conditions noted are these: Homo sapiens, U-87 MG, 96 h, MTT 4 days later. As to the method: as §3
The subject of a further assay is BT74 glioma stem cells. The assay is described as follows: MTS cell viability assay with Chou-Talalay analysis. Particulars: Homo sapiens, 96 h, MTS 4 days later. As to the method: BT74 glioma stem cells were seeded to 96-well plates at 5000 cells per well. […] TMZ was applied first, with or without O6-Benzylguanine (O6-BG:80 μM), followed by G47Δ 12 hours later. MTS assay was performed to measure cell viability 4 days later.
as §2

`Cn1nnc2c(C(N)=O)ncn2c1=O` [TMZ, temozolomide]: the concentration giving a half-maximal response (EC50) was 3 µM in the assay on GBM8 glioma stem cells; 20 µM in the assay with GBM4 glioma stem cells; 1500 µM with GBM13 glioma stem cells; 200 µM in the assay on U373; 200 µM in the assay with U87; 1500 µM with BT74 glioma stem cells.
